Where “and” joins values, the source holds several entries; their conditions need not be identical. Identical values can stand only once. Like-named read-outs stand apart in the source and are kept apart here.
Tests used:
[1] = tested on: Caco-2 cells; assay: Permeability test on Caco2 cells; format: in vitro ADME; settings: for Penetration Type: Caco2 cell model
Procedure: (§1) After resuscitation, the Caco-2 cells are transferred to a conventional culture dish and cultured in a high-glucose DMEM medium (containing 10% FBS) at 37° C. and 5% CO2 in an incubator. When the cells cover 80% to 95% of the bottom of the dish, they are digested with trypsin containing 0.25% EDTA to disperse them into a single cell suspension, and the cell concentration is determined using a cell counter, after that, the concentration of the cell suspension is adjusted to 2 to 2.5×10^5/mL with fresh culture medium and inoculated into a Transwell polycarbonate membrane 12-well plate, the fresh culture medium is replaced every two days in the first two weeks and once a day in the last week, the culture is continued for 19 to 21 days to obtain a fully differentiated single cell layer.

[2] = Permeability test on Caco2 cells; format: in vitro ADME; settings: human, Caco-2, AP→BL
Procedure: as §1

[3] = molecular target: recombinant TEAD3 protein central pocket (Homo sapiens (Human), UniProt Q99594); assay: Competitive thiol binding assay (CPM assay), TEAD3; settings: 150 nM recombinant TEAD protein, 150 nM CPM
Procedure: (§2) Diluting the tested compound in gradient to 5 uL with buffer (25 mM HEPES, 150 mM NaCl, pH6.5), then adding 5 μL of the newly prepared 0.45 uM recombinant TEAD protein solution, and incubating at room temperature for 10 minutes. […] After shaking the plate at room temperature for 1 hour, measuring the fluorescence intensity (Ex/Em: 380/470 nm).

[4] = tested on: TEAD family proteins; assay: Thermal shift assay, summary over all TEAD subtypes; format: binding; settings: summary of Table 1
Procedure: (§3) The ability of the compounds to increase the melting point of purified recombinant TEAD1/2/3/4 proteins is tested using a thermal shift assay. The strength of the compound's binding to the protein and the selectivity of the compound's binding to the four TEAD subtypes are evaluated by calculating the melting point shift ΔTm−° C. […] Based on the Δ Tm value, the ability of the compound to bind to the TEAD protein is divided into four levels: ++++, +++, ++, +.
(§4) Test method of protein melting point curve: 10 μL of the protein melting point curve experimental system (10 μM TEAD protein, 50 μM test compound, SYPRO® orange (55692, sigma)) is prepared in a 384-well fluorescence quantitative PCR plate according to the following system, and reacted at 4° C. in the dark for 20 minutes. On-machine reaction: ABI QuantStudio Dx fluorescence quantitative PCR instrument; program: from 25° C. to 80° C., increasing the temperature at a rate of 0.05° C./s, and reading the fluorescence channel signal of the corresponding wavelength of SYPRO® orange every second.

[5] = tested on: recombinant TEAD1 protein (194-411, Uniprot ID: P28347); assay: Thermal shift assay (protein melting point curve), TEAD1; format: binding; parameters: key to the marks not given beside the values; settings: 10 μM TEAD protein, 50 μM test compound
Procedure: as §3, §4

[6] = molecular target: recombinant TEAD2 protein central pocket (Homo sapiens (Human), UniProt Q15562); assay: Competitive thiol binding assay (CPM assay), TEAD2; settings: 150 nM recombinant TEAD protein, 150 nM CPM
Procedure: as §2

[7] = molecular target: recombinant TEAD1 protein central pocket (Homo sapiens (Human), UniProt P28347); assay: Competitive thiol binding assay (CPM assay), TEAD1; settings: 150 nM recombinant TEAD protein, 150 nM CPM
Procedure: as §2

[8] = molecular target: recombinant TEAD2 protein (218-447, Uniprot ID: Q15562) (Homo sapiens (Human), UniProt Q15562); assay: Thermal shift assay (protein melting point curve), TEAD2; format: binding; settings: 10 μM TEAD protein, 50 μM test compound
Procedure: as §3, §4

[9] = molecular target: recombinant TEAD4 protein (217-434, Uniprot ID: Q15561) (Homo sapiens (Human), UniProt Q15561); assay: Thermal shift assay (protein melting point curve), TEAD4; format: binding; settings: 10 μM TEAD protein, 50 μM test compound
Procedure: as §3, §4

[10] = molecular target: recombinant TEAD4 protein central pocket (Homo sapiens (Human), UniProt Q15561); assay: Competitive thiol binding assay (CPM assay), TEAD4; settings: 150 nM recombinant TEAD protein, 150 nM CPM
Procedure: as §2

[11] = molecular target: recombinant TEAD3 protein (218-435, Uniprot ID: Q99594) (Homo sapiens (Human), UniProt Q99594); assay: Thermal shift assay (protein melting point curve), TEAD3; format: binding; settings: 10 μM TEAD protein, 50 μM test compound
Procedure: as §3, §4

[12] = Mouse plasma pharmacokinetic test; format: in vivo, CD-1 mice
Excerpt: In this example, different compounds are used to perform a mouse pharmacokinetic experiment, and the specific steps are as follows: Animal information: CD-1 mice, male, about 20 g, purchase from Beijing Weitonglihua Experimental Animal Technology Co., Ltd.
Animal dietary status: Animals are not fasted before administration and allowed to drink water freely.
Compound preparation method: for intragastric administration (IG)(G1 group), preparing with 0.5% CMC-Na, and for intravenous injection(IV) (G2 group), preparing 5% DMSO+30% PEG400+65% water. […]
Sampling time points of G1 group: 8 points in total, namely 10 min, 30 min, 1 h, 2 h, 4 h, 6 h, 8 h and 24 h after administration, among them, animals G1M01-G1M03 are sampled at 3 time points, namely 10 min, 1 h and 6 h; animals G1M04-G1M06 are sampled at 3 time points, namely 30 min, 2 h and 8 h; animals G1M07-G1M09 are sampled at 2 time points, namely 4 h and 24 h.
Sampling time points of G2 group: 9 points in total, namely 5 min, 10 min, 30 min, 1 h, 2 h, 4 h, 6 h, 8 h, 24 h after administration. It is recommended that animals G2M01-G2M03 are sampled at 3 time points, namely 5 min, 1 h, and 6 h; animals G2M04-G2M06 are sampled at 3 time points, namely 10 min, 2 h, and 8 h; animals G2M07-G2M09 are sampled at 3 time points, namely 30 min, 4 h, and 24 h.
Sample collection: On the day of the experiment, collecting approximately 0.1 mL of whole blood samples at each preset time point and placing in EDTA-K2 anticoagulant tubes.
Sample processing: Within 30 minutes after whole blood sample collection, centrifuging at 4° C., 12,000 rpm for 5 minutes to separate plasma, collecting the upper plasma sample into a sample tube, and freezing the plasma sample in a −10˜−30° C. refrigerator within 30 minutes and transferring to a −60˜−90° C. refrigerator within 24 hours.
Sample testing and data processing: LC/MS/MS testing, WinNonlin for fitting and pharmacokinetic parameter calculation.

[13] = In vitro liver microsome stability, human; format: in vitro ADME
Procedure: (§5) Testosterone is selected as the positive reference compound. The specific method is as follows:
(§6) Preparing 0.1MK3 PO4 (pH 7.4) buffer and 3×NADPH stock solution (6 mM, 5 mg/mL), and preheating in a 37° C. water bath; preparing spiking solution of tested compound and control compound: adding 5 μL compound stock solution (10 mM) to 95 μL acetonitrile; preparing 1.5 μM spiking solution in microsomes (0.75 mg/mL): add 1.5 μL spiking solution and 18.75 μL liver microsome solution (20 mg/mL) to 479.75 μL K3PO4 buffer; taking 30 μL spiking solution in microsomes and adding it to the multiwell plate, and incubating at 37° C. for 5 min; adding 15 μL of NADPH stock solution to each well, starting to react, and timing; adding 150 μL of acetonitrile solution containing IS at 0 min, 5 min, 15 min, 30 min, 45 min and 60 min respectively to terminate the reaction; after 10 min of oscillation, centrifuging the reaction at 6000 rpm for 15 min; taking 80 μL of supernatant from each well for LC/MS detection and calculating Ti/2.
(§7) Liver microsomes of mice, rats, dogs, and human used in the experiment are purchased from Xenotech.

[14] = In vitro liver microsome stability, mouse; format: in vitro ADME
Procedure: as §5, §6, §7

[15] = single replicate, read-out: Papp
[16] = CD-1, mouse, plasma, VT103 in mice, IV

Chain of recombinant TEAD2 protein central pocket (Q15562 whole entry): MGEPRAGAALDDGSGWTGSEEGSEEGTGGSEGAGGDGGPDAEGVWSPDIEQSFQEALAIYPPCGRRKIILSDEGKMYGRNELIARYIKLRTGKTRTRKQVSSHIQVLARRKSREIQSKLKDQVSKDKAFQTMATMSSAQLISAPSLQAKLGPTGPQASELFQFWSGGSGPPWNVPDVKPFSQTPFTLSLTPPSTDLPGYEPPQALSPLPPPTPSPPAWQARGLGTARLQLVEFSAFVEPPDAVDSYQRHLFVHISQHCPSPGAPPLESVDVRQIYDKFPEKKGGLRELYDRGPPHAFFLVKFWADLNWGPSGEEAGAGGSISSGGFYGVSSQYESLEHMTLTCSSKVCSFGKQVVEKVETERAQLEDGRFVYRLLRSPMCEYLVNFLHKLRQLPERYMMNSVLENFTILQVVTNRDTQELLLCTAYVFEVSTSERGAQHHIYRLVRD
Chain of recombinant TEAD4 protein central pocket (Q15561 whole entry): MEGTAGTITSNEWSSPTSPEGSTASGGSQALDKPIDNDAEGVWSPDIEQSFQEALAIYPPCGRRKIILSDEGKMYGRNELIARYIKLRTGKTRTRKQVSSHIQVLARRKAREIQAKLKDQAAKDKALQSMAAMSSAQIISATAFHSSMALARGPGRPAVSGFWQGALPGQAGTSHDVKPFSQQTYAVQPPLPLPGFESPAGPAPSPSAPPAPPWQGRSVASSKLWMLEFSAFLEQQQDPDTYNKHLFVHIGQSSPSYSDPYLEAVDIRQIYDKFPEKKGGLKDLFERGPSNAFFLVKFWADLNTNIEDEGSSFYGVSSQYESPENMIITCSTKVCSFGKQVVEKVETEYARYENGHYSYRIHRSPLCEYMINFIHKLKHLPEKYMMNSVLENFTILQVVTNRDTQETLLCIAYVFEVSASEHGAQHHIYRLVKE
Chain of recombinant TEAD1 protein central pocket (P28347 whole entry): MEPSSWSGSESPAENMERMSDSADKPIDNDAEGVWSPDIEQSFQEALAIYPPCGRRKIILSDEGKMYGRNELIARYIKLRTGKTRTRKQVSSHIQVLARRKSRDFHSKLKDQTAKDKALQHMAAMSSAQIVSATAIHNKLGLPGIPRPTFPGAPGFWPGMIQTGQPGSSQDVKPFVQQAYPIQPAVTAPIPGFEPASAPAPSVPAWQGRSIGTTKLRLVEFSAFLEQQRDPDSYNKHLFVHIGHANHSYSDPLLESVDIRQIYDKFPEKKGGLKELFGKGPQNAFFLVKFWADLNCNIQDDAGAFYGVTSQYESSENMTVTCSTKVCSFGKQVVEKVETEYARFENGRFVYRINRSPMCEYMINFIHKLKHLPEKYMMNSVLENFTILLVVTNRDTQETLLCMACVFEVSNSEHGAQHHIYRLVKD
Chain of recombinant TEAD4 protein (217-434, Uniprot ID: Q15561) (Q15561 217-434): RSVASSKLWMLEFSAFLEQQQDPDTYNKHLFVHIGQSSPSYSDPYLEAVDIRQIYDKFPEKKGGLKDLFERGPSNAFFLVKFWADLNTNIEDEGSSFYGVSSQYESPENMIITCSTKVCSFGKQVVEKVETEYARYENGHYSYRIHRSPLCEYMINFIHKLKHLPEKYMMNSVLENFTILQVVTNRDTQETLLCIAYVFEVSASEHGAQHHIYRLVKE
Chain of recombinant TEAD2 protein (218-447, Uniprot ID: Q15562) (Q15562 218-447): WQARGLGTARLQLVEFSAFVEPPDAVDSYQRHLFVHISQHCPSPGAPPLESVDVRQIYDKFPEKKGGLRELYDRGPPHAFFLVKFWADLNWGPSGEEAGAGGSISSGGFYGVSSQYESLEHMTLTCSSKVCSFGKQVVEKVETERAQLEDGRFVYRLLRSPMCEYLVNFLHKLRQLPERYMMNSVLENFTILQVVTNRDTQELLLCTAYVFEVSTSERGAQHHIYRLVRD
Chain of recombinant TEAD3 protein central pocket (Q99594 whole entry): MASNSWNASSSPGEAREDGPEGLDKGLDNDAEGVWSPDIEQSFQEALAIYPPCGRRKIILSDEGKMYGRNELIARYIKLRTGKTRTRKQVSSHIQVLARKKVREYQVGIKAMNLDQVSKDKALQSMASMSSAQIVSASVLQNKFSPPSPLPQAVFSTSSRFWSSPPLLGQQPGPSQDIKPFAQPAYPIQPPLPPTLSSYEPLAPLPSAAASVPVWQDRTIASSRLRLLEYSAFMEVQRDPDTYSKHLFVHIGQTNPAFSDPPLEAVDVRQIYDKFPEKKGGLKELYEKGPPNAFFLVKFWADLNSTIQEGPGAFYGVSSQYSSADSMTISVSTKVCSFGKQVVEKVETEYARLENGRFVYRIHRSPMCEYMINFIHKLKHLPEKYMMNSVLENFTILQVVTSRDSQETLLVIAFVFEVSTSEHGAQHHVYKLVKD
Chain of recombinant TEAD3 protein (218-435, Uniprot ID: Q99594) (Q99594 218-435): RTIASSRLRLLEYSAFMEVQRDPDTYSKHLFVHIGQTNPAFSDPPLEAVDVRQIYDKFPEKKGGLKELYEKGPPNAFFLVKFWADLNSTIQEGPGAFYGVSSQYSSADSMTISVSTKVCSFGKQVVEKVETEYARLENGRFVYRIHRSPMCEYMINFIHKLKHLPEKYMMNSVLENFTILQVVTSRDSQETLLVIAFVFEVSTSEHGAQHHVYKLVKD

Papp ([1]; AP→BL, single replicate)	Penetration Type [1]	Papp at 120 min [2, 15] [×10⁻⁶ cm/s]	IC50 [3] [nM]	binding ability to each subtype of TEAD family proteins [4]	IC50 [6] [nM]	IC50 [7] [nM]	Δ T m (TEAD2) [8]	Δ T m (TEAD4) [9]	IC50 [10] [nM]	Δ T m (TEAD3) [11]	SMILES	Δ T m (TEAD1) [5]	other results
			710	good binding abilities	530	340	++++	++++	220	+++	CCP(=O)(CC)c1ccc(Nc2ccc(C(F)(F)F)cc2)c(-c2cn(C)cn2)c1 [Compound 76]	++++	
			2700		880	1200			2500		CNS(=O)(=O)c1ccc(Nc2ccc(C(F)(F)F)cc2)c(-c2cn(C)cn2)c1 [VT103, reference compound]		concentration at 24 h ([12]; CD-1, mouse, plasma, oral, VT103 in mice, IG 7 mg/kg, converted from ng/ml, read-out: blood concentration after 24 hours): 828 nM; bioavailability ([12]; CD-1, mouse, plasma, po, 7 mg/kg, VT103 in mice): 75%; concentration at 24 h ([12]; CD-1, mouse, plasma, VT103 in mice, 7 mg/kg oral/IG, read-out: plasma drug concentration after 24 hours C24h): 340 ng/mL; clearance [12, 16]: 4.7 mL/min/kg; half-life [12, 16]: 13.2 h; Vd ([12]; CD-1, mouse, plasma, VT103 in mice, IV, read-out: VSS): 4.5 L/kg; Cmax ([12]; CD-1, mouse, plasma, VT103 in mice, per oral (PO) 7 mg/kg, read-out: Cmax): 896 ng/mL
				good binding abilities							Cn1cnc(-c2cc(P(C)(C)=O)ccc2Nc2ccc(C(F)(F)F)cc2)c1 [Compound 64]	++++	F % ([12]; CD-1 mice, IG 10 mg/kg vs IV 1 mg/kg): 87.1%; AUC0-t ([12]; CD-1 mice, single IG 10 mg/kg): 57458 ng·h/mL; AUC0-∞ ([12]; CD-1 mice, single IG 10 mg/kg): 69572 ng·h/mL; Cmax ([12]; CD-1 mice, single IG 10 mg/kg): 4063 ng/mL; MRT0-t ([12]; CD-1 mice, single IG 10 mg/kg): 8.16 h; MRT0-∞ ([12]; CD-1 mice, single IG 10 mg/kg): 13.3 h; Tmax ([12]; CD-1 mice, single IG 10 mg/kg): 2.67 h; t1/2 ([12]; CD-1 mice, single IG 10 mg/kg): 9.43 h; AUC0-t ([12]; CD-1 mice, single IV 1 mg/kg): 6596 ng·h/mL; AUC0-∞ ([12]; CD-1 mice, single IV 1 mg/kg): 7208 ng·h/mL; CL ([12]; CD-1 mice, single IV 1 mg/kg): 2.33 mL/min/kg; MRT0-t ([12]; CD-1 mice, single IV 1 mg/kg): 5.85 h; MRT0-∞ ([12]; CD-1 mice, single IV 1 mg/kg): 8.26 h; Vss ([12]; CD-1 mice, single IV 1 mg/kg): 1.15 L/kg; t1/2 ([12]; CD-1 mice, single IV 1 mg/kg): 6.98 h; pharmacokinetic properties in mice ([12]; mice): good pharmacokinetic properties; metabolic stability ([13]; human liver microsome environment): good metabolic stabilities; human half-life ([13]; human liver microsomes): > 3.1 h; metabolic stability ([14]; mouse liver microsome environment): good metabolic stabilities; mouse half-life ([14]; mouse liver microsomes): > 3.1 h

The next lines start with the compound.

SMILES	Papp ([1]; AP→BL, single replicate)	Penetration Type [1]	Papp at 120 min [2, 15] [×10⁻⁶ cm/s]	IC50 [3] [nM]	binding ability to each subtype of TEAD family proteins [4]	IC50 [6] [nM]	IC50 [7] [nM]	Δ T m (TEAD2) [8]	Δ T m (TEAD4) [9]	IC50 [10] [nM]	Δ T m (TEAD3) [11]	Δ T m (TEAD1) [5]	other results
COCCc1ccc(OCC(O)CNC(C)C)cc1 (stereo not shown) [Metoprolol]	18.4 10^−6 cm/s	High	17.8										
O=P1(c2ccc(Nc3ccc(C(F)(F)F)cc3)c(-c3ncccn3)c2)CC(CO)C1 (stereo not shown) [Compound 21]					good binding abilities	310	200	++++	++++	110	+++	++++	
O=C1OC2(c3ccc(O)cc3Oc3cc(O)ccc32)c2ccccc21 [fluorescein]	0.334 10^−6 cm/s	Zero	0.364										Receiving chamber concentration Area ratio/OD ([1]; AP→BL, single replicate): 4.40E+07 and 4.05E+07; Papp at 120 min ([2]; n = 2, read-out: Papp average value): 0.349 ×10⁻⁶ cm/s

From patent publication US20260055126A1, “SMALL MOLECULE COMPOUNDS WITH PHOSPHORYLATED ARYL STRUCTURES AND USE THEREOF” (HANGZHOU PHECDAMED CO., LTD., priority 2022, published 2026)
